From ChEMBL document CHEMBL5584334, “Discovery of a Covalent Inhibitor of Pro-Caspase-1 Zymogen Blocking NLRP3 Inflammasome Activation and Pyroptosis” (J Med Chem, 2024)
Active and inactive are the calls of the source. The calls are words filed in the database; no cut-off is given here.

Assays:
Mus musculus = assay: Anti-inflammatory activity in MSU/C18:0 free fatty acid induced ip dosed Kunming mouse model of gouty arthritis assessed as reduction in joint swelling preadministered with compound for 30 mins followed by MSU/C18:0 free fatty acid injection and measured after 24 hrs; format: functional, organism-based; conditions: time 24.5 hrs
Caspase-3 (Mus musculus) = target: T1, Caspase-3 (Mus musculus) (UniProt P70677); assay: Inhibition of cisplatin induced caspase-3 activation in mouse J774.A1 cells at 0.5 uM preincubated for 30 mins followed by cisplatin addition and incubated overnight; format: cell-based
T1 sequence (whole entry): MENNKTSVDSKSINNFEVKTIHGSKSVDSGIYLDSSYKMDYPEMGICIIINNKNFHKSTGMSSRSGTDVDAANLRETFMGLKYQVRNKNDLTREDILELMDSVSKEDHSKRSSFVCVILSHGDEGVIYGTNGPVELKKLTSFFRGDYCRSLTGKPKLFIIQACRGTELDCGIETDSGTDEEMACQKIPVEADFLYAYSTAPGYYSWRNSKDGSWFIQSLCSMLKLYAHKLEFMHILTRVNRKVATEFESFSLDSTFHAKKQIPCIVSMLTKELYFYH

Caspase-1 (Mus musculus) = target: T2, Caspase-1 (Mus musculus) (UniProt P29452); assay: Binding affinity to caspase-1 in LPS-induced mouse J774.A1 cells assessed as reduction in IL-1beta level at 0.5 uM preincubated with compound followed by nigericin addition; format: cell-based; conditions: time 3-24 hrs
T2 sequence (whole entry): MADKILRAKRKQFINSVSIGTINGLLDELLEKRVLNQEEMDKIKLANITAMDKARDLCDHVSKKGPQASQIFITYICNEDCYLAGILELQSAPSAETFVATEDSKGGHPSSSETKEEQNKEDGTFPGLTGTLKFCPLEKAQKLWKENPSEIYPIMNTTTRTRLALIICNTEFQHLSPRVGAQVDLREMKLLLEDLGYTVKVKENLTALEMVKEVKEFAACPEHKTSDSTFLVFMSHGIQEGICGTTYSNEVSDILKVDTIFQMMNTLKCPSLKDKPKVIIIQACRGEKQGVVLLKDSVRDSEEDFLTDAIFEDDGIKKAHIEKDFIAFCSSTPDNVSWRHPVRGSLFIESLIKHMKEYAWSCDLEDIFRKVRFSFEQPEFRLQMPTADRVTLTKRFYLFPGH

J774.A1 [1] = assay: Inhibition of pyroptosis in mouse J774.A1 cells assessed as reduction in cleaved GSDMD expression pretreated with LPS for 3 hrs followed by compound addition in presence of nigericin by Western blotting analysis; format: functional, cell-based
J774.A1 [2] = assay: Inhibition of pyroptosis in mouse J774.A1 cells assessed as reduction in LDH release at 0.5 to 2 uM pretreated with LPS for 3 hrs followed by compound addition in presence of nigericin; format: functional, cell-based; conditions: dose 0.5-2 µM
J774.A1 [3] = assay: Downregulation of inhibitor kappa B-alpha phosphorylation in mouse J774.A1 cells preincubated for 30 mins followed by LPS addition and measured after 2 hrs by Western blotting analysis; format: functional, cell-based; conditions: time 2.5 hrs
J774.A1 [4] = assay: Downregulation of IKKalpha/beta phosphorylation in mouse J774.A1 cells preincubated for 30 mins followed by LPS addition and measured after 2 hrs by Western blotting analysis; format: functional, cell-based; conditions: time 2.5 hrs
J774.A1 [5] = assay: Inhibition of pyroptosis in mouse J774.A1 cells assessed as reduction in number of annexin V and PI positive cells pretreated with LPS for 3 hrs followed by compound addition in presence of nigericin by flow cytometry analysis; format: functional, cell-based
J774.A1 [6] = assay: Downregulation of p65 phosphorylation in mouse J774.A1 cells preincubated for 30 mins followed by LPS addition and measured after 2 hrs by Western blotting analysis; format: functional, cell-based; conditions: time 2.5 hrs
Caspase-7 (Mus musculus) = target: T3, Caspase-7 (Mus musculus) (UniProt P97864); assay: Inhibition of cisplatin induced caspase-7 activation in mouse J774.A1 cells at 0.5 uM preincubated for 30 mins followed by cisplatin addition and incubated overnight; format: cell-based
T3 sequence (whole entry): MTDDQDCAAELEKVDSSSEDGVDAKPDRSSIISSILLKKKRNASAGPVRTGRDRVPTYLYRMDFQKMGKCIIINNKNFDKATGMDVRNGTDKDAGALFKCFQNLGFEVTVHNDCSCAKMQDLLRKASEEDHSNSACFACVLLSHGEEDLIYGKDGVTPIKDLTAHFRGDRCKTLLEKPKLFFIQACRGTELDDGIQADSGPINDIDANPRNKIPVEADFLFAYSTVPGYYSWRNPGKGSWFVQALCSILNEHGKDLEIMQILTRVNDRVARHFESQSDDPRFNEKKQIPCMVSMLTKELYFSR

J774.A1 [7] = assay: Inhibition of pyroptosis in mouse J774.A1 cells assessed as reduction in caspase-1 to GSDMD interaction at 0.5 uM pretreated with LPS for 3 hrs followed by compound addition in presence of nigericin by immunoprecipitation analysis; format: functional, cell-based

SMILES	Activity (Mus musculus)	inhibition (Caspase-3 (Mus musculus))	Activity (Caspase-1 (Mus musculus))	inhibition (J774.A1 [1])	inhibition (J774.A1 [2])	Activity (J774.A1 [3])	Activity (J774.A1 [4])	inhibition (J774.A1 [5])	Activity (J774.A1 [6])	inhibition (Caspase-7 (Mus musculus))	inhibition (J774.A1 [7])
COc1cc2c(c(OC)c1OC)-c1ccc(OC)c(=O)cc1[C@@H](NC(C)=O)CC2	Active										
CCO[C@@H]1OC(=O)C[C@@H]1NC(=O)[C@@H]1CCCN1C(=O)[C@@H](NC(=O)c1ccc(N)c(Cl)c1)C(C)(C)C		inactive	inactive	Active	Active	Active	Active	Active	Active	inactive	Active
